Reference: PubChem BioAssay (NCI)
Several values for one entry are separate records, joined by “and”; a condition that tells them apart may be missing. Equal values may be shown once.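 Following 48 hours of exposure in 96-well plates, responses at five concentrations were used to interpolate endpoints linearly. GI50 = concentration required for 50% inhibition of growth. TGI denotes the concentration required for complete inhibition of growth.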

Experiments:
Assay in all cases: growth of human tumour cells (NCI), 48 h
786-0 renal = test system: 786-0 renal
BT-549 breast = test system: BT-549 breast
CCRF-CEM leukemia = test system: CCRF-CEM leukemia
COLO 205 colon = test system: COLO 205 colon
HCC-2998 colon = test system: HCC-2998 colon
HOP-92 NSCLC = test system: HOP-92 NSCLC
NCI/ADR-RES ovarian = test system: NCI/ADR-RES ovarian
OVCAR-4 ovarian = test system: OVCAR-4 ovarian
OVCAR-8 ovarian = test system: OVCAR-8 ovarian
SK-MEL-5 melanoma = test system: SK-MEL-5 melanoma

Compound	GI50 (786-0 renal)	TGI (786-0 renal) [µM]	GI50 (BT-549 breast) [µM]	TGI (BT-549 breast) [µM]	GI50 (CCRF-CEM leukemia) [µM]	TGI (CCRF-CEM leukemia) [µM]	GI50 (COLO 205 colon) [µM]	TGI (COLO 205 colon) [µM]	GI50 (HCC-2998 colon) [µM]	TGI (HCC-2998 colon)	GI50 (HOP-92 NSCLC) [µM]	TGI (HOP-92 NSCLC) [µM]	GI50 (NCI/ADR-RES ovarian) [µM]	TGI (NCI/ADR-RES ovarian)	GI50 (OVCAR-4 ovarian) [µM]	TGI (OVCAR-4 ovarian) [µM]	GI50 (OVCAR-8 ovarian) [µM]	TGI (OVCAR-8 ovarian) [µM]	GI50 (SK-MEL-5 melanoma) [µM]	TGI (SK-MEL-5 melanoma)
CC(C)(C#N)c1cc(F)cc(C(=O)Nc2cc(Nc3ncccc3-c3ncnc4nc[nH]c34)ccc2F)c1	> 10 µM	> 10	3.63	> 10	3.91	> 10	0.109	> 10	1.12	> 10 µM	0.137	0.842	4.58	> 10 µM	4.71	> 10	3.16	> 10	0.635	> 10 µM
CC(=O)O[C@H](C[C@H](C(C)C)N(C)C(=O)[C@@H](NC(=O)[C@H]1CCCCN1C)C(C)C)c1nc(C(=O)N[C@@H](Cc2ccccc2)C[C@H](C)C(=O)O)c(C(C)C)s1	< 0.00333 µM	9.51	0.00338	0.0147	< 0.00333	> 33.3	< 0.00333	< 0.033	< 0.00333	2 µM	0.00521	> 15.5	0.0691	–	0.00673	> 33.3	< 0.00333	> 33.3	< 0.00333	0.00641 µM
O=C(Nc1ccc(Oc2ccc3nc(NC(=O)c4ccccc4)[nH]c3c2)cc1)Nc1cc(C(F)(F)F)ccc1F	7.32 µM	> 25	1.19	8.57	0.657	> 9.17	1.12	6.7	2.38	> 21.5 µM	0.887	8.81	0.771	3.38 µM	0.678	2.71	0.764	5.08	0.543	1.83 µM
CC(=O)c1c(C)n(C)c2c1nnc1ccccc12	–	> 100	–	> 100	–	> 100	–	> 100	–	> 100 µM	–	> 100	–	> 100 µM	–	> 100	–	> 100	–	> 100 µM
Cc1cccc(C(=O)/C=C/SC(=NC#N)SCc2ccccc2)c1	19.1 µM	40.5	16.1	36.7	3.23	> 100	33.6	> 100	19.3	39.4 µM	12.3	47.9	24.4	64.5 µM	> 100	> 100	35.6	> 100	14.7	32.9 µM
CO/N=C(\C)c1cccc(Nc2cc(-c3ccccc3)nc3c(O)cccc23)c1	0.307 µM	3.38	15.1	55.1	2.57	8.74	18.3	46.1	2.88	12.6 µM	5.28	28.9	2.02	13.5 µM	61.3	> 100	5.52	25.9	16.6	39.2 µM
COC1CCC(O)C(/C=C/[N+](=O)[O-])C1 (centres undefined)	–	3.67	–	8.49	–	> 100	–	5.7	–	3.14 µM	–	26.6	–	75.1 µM	–	28.4	–	4.69	–	14.9 µM
c1ccc(-c2cc(C3CO3)c3ccccc3n2)cc1 (centres undefined)	–	29.3	–	43.6	–	> 100	–	37.4	–	35.2 µM	–	39.2	–	57.6 µM	–	37.2	–	43.2	–	31.4 µM
O=C1c2ccccc2C(=Cc2ccccc2)c2ccccc21	2.7 µM	6.94	3.71	15.6	2.77	29	2.2	5.14	2.69	10.1 µM	1.45	5.17	1.6	6.62 µM	4.31	24.4	2.19	5.26	2.77	10.9 µM
CCN1C(=O)NC(=O)C(C)(N2C(=O)c3c(F)c(F)c(F)c(F)c3C2=O)C1=O (centres undefined)	4.49 µM	17.7	3.82	13.3	1.89	4.54	2.13	4.47	2.52	7.77 µM	1.86	4.12	3.6	18.2 µM	2.44	6.31	3.55	22.6	4.92	13.7 µM
Cc1cnc(/C=N\NC(N)=S)c2cccc(N)c12	0.867 µM and 0.501 µM	–	3.52	> 100	1.82	> 24	3.23	> 100	–	> 100 µM	2.07	> 100	3.53	> 100 µM and 17.8 µM	3.4	> 100	2.66	> 100	1.25	–
O=P(NC12CC3CC(CC(C3)C1)C2)(N1CC1)N1CC1	–	> 100	–	> 100	–	> 100	–	> 100	–	> 100 µM	–	> 100	–	> 100 µM	–	> 100	–	> 100	–	> 100 µM
O=C(CSC(c1ccccc1)c1ccccc1)N/N=C/c1cccc(Cl)c1	17.3 µM	32.7	17.9	32.2	0.755	31	–	–	18.6	32.6 µM	21.2	37.2	14.3	31.8 µM	15	30.8	17.6	39.6	11.4	23.7 µM
C/C(=N\N=C(\[Se])N1CCN(c2ccccn2)CC1)c1ccccn1	0.198 µM	19.8	–	25	–	–	0.00449	0.0358	–	23.3 µM	0.0044	13.2	–	18.6 µM	0.00554	3.31	0.000541	20.6	0.0401	3.95 µM
CCOc1cc2c(cc1O)/C(=N\O)C[C@@H]1[C@@H]2CC[C@]2(C)[C@@H](O)CC[C@@H]12	0.015 µM	> 100	0.0864	22.5	–	–	0.00176	–	1.63	9.51 µM and > 41.1 µM	14.8	> 100	–	> 100 µM	8.67	> 100	–	> 100	0.00618	1.32 µM and 10.2 µM
